Where two headings read alike, the source gives them in different places.
Legend:
Assay in all cases: NCI-60 screening, one-dose (10 µM) and five-dose, SRB
[1] = tested on: MDA-MB-435; format: cell-based; conditions: Homo sapiens, MDA-MB-435, read-out: Growth percentage, 10 μM; MDA-MB-435, Melanoma
[2] = tested on: SR; format: cell-based, human; conditions: 10 μM, Leukemia
[3] = tested on: A498; format: cell-based; conditions: Homo sapiens
[4] = tested on: SF-295; format: cell-based, human; conditions: Homo sapiens; 10 μM; SF-295, CNS Cancer; read-out: Growth percentage
[5] = tested on: RPMI-8226; format: cell-based, human; conditions: Homo sapiens, RPMI-8226, 10 μM; RPMI-8226, Leukemia; read-out: Growth percentage
[6] = tested on: SK-MEL-5; format: cell-based, human; conditions: Homo sapiens; 10 μM; SK-MEL-5, Melanoma; read-out: Growth percentage
[7] = tested on: HCT-15; format: cell-based, human; conditions: Homo sapiens; 10 μM; HCT-15, Colon Cancer; read-out: Growth percentage
[8] = tested on: COLO 205; format: cell-based, human; conditions: Homo sapiens; 10 μM; COLO 205, Colon Cancer; read-out: Growth percentage
[9] = tested on: PC-3; format: cell-based, human; conditions: Homo sapiens; 10 μM; PC-3, Prostate Cancer; read-out: Growth percentage
[10] = tested on: OVCAR-8; format: cell-based, human; conditions: Homo sapiens; 10 μM; OVCAR-8, Ovarian Cancer; read-out: Growth percentage
[11] = tested on: BT-549; format: cell-based; conditions: Homo sapiens
[12] = tested on: TK-10; format: cell-based, human; conditions: Homo sapiens; 10 μM; TK-10, Renal Cancer; read-out: Growth percentage
[13] = tested on: MDA-MB231/ATCC; format: cell-based; conditions: 10 μM; MDA-MB231/ATCC, Breast Cancer
[14] = tested on: CAKI-1; format: cell-based; conditions: Homo sapiens; 10 μM; CAKI-1, Renal Cancer; read-out: Growth percentage
[15] = tested on: MDA-MB-468; format: cell-based, human; conditions: Homo sapiens, MDA-MB-468, 10 μM; MDA-MB-468, Breast Cancer; read-out: Growth percentage
Text: Control cells Test cells FLD
available usually at NCI library.
An aliquot of frozen drug concentrate is […]

[16] = tested on: NCI-H226; format: cell-based, human; conditions: Homo sapiens; 10 μM; NCI-H226, Non-Small-Cell Lung Cancer; read-out: Growth percentage
[17] = tested on: LOX IMVI; format: cell-based, human; conditions: Homo sapiens, 10 μM, Melanoma, read-out: Growth percentage
[18] = tested on: 786−0; format: cell-based, human; conditions: Homo sapiens; 10 μM; 786−0, Renal Cancer; read-out: Growth percentage
[19] = tested on: SW-620; format: cell-based, human; conditions: Homo sapiens; 10 μM; SW-620, Colon Cancer; read-out: Growth percentage
[20] = tested on: HOP-62; format: cell-based, human; conditions: Homo sapiens, HOP-62, 10 μM; HOP-62, Non-Small-Cell Lung Cancer; read-out: Growth percentage
[21] = tested on: SNB-75; format: cell-based, human; conditions: Homo sapiens; 10 μM; SNB-75, CNS Cancer; read-out: Growth percentage
[22] = tested on: HL-60(TB); format: cell-based, human; conditions: Homo sapiens, HL-60, 10 μM; HL-60(TB), Leukemia; read-out: Growth percentage
[23] = tested on: HCT-116; format: cell-based, human; conditions: Homo sapiens, HCT-116, 10 μM; HCT-116, Colon Cancer; read-out: Growth percentage
[24] = tested on: NCI/ADR-RES; format: cell-based, human; conditions: Homo sapiens, 10 μM, Ovarian Cancer, read-out: Growth percentage
[25] = tested on: SK-MEL-2; format: cell-based, human; conditions: Homo sapiens; 10 μM; SK-MEL-2, Melanoma; read-out: Growth percentage
[26] = tested on: SN12C; format: cell-based, human; conditions: Homo sapiens, 10 μM, Renal Cancer, read-out: Growth percentage
[27] = tested on: A549/ATCC; format: cell-based, human; conditions: Homo sapiens, 10 μM, Non-Small-Cell Lung Cancer, read-out: Growth percentage
[28] = tested on: M14; format: cell-based, human; conditions: Homo sapiens; 10 μM; M14, Melanoma; read-out: Growth percentage
[29] = tested on: NCI-H460; format: cell-based, human; conditions: Homo sapiens, NCI-H460, 10 μM; NCI-H460, Non-Small-Cell Lung Cancer; read-out: Growth percentage
[30] = tested on: RXF 393; format: cell-based; conditions: Homo sapiens
[31] = 10 μM, BT-549, Breast Cancer, read-out: Growth percentage
[32] = 10 μM, RXF 393, Renal Cancer, read-out: Growth percentage
[33] = A498, 10 μM, A498, Renal Cancer, read-out: Growth percentage

SMILES	activity at 10 µM [1]	Growth percentage [2]	activity at 10 µM [4]	activity at 10 µM [5]	activity at 10 µM [6]	activity at 10 µM [7]	activity at 10 µM [8]	activity at 10 µM [9]	activity at 10 µM [10]	activity at 10 µM [12]	Growth percentage [13]	activity at 10 µM [14]	activity at 10 µM [15]	activity at 10 µM [16]	activity at 10 µM [17]	activity at 10 µM [18]	activity at 10 µM [19]	activity at 10 µM [20]	activity at 10 µM [21]	activity at 10 µM [22]	also measured
Cc1nc(SCC(=O)N2CCN(c3cc4c(cc3F)c(=O)c(C(=O)O)cn4C3CC3)CC2)sc1C(=O)/C=C/c1ccc(F)cc1 [Compound 4e, (E)-1-Cyclopropyl-6-fluoro-7-(4-(2-((5-(3-(4-fluorophenyl)acryloyl)-4-methylthiazol-2-yl)thio)acetyl)piperazin-1-yl)-4-oxo-1,4-dihydroquinoline-3-carboxylic Acid]	104%	55.6%	98.8%	29.1%	99.9%	96.8%	119%	96.6%	105%	103%	101.1%	97.4%	106%	98.3%	91.2%	88.3%	126%	108%	103%	107%	activity at 10 µM ([3]; A498, read-out: Growth percentage): 106%; activity at 10 µM [11, 31]: 102%; activity at 10 µM [23]: 51.2%; activity at 10 µM [24]: 104%; activity at 10 µM [25]: 104%; activity at 10 µM [26]: 99.5%; activity at 10 µM [27]: 104%; activity at 10 µM [28]: 97.8%; activity at 10 µM [29]: 108%; activity at 10 µM [30, 32]: 95.9%
Cc1nc(SCC(=O)N2CCN(c3cc4c(cc3F)c(=O)c(C(=O)O)cn4C3CC3)CC2)sc1C(=O)/C=C/c1ccc(Br)cc1 [Compound 4f, (E)-7-(4-(2-((5-(3-(4-Bromophenyl)acryloyl)-4-methylthiazol-2-yl)thio)acetyl)piperazin-1-yl)-1-cyclopropyl-6-fluoro-4-oxo-1,4-dihydroquinoline-3-carboxylic Acid]	107%	56.5%	108%	31.5%	101%	106%	112%	102%	75%	108%	98.6%	101%	109%	107%	90.5%	93.6%	116%	94.3%	65.7%	83.3%	activity at 10 µM [3, 33]: 114%; activity at 10 µM ([11]; BT-549, read-out: Growth percentage): 107%; activity at 10 µM [23]: 94.3%; activity at 10 µM [24]: 107%; activity at 10 µM [25]: 105%; activity at 10 µM [26]: 101%; activity at 10 µM [27]: 107%; activity at 10 µM [28]: 108%; activity at 10 µM [29]: 107%; activity at 10 µM ([30]; RXF 393, read-out: Growth percentage): 107%
Cc1nc(SCC(=O)N2CCN(c3cc4c(cc3F)c(=O)c(C(=O)O)cn4C3CC3)CC2)sc1C(=O)/C=C/c1cccc([N+](=O)[O-])c1 [Compound 4g, (E)-1-Cyclopropyl-6-fluoro-7-(4-(2-((4-methyl-5-(3-(3-nitrophenyl)acryloyl)thiazol-2-yl)thio)acetyl)piperazin-1-yl)-4-oxo-1,4-dihydroquinoline-3-carboxylic Acid]	71.9%	11.6%	110%	9.9%	81.7%	71.7%	90.5%	112%	69.2%	109%	92.4%	92.6%	92.8%	102%	34.2%	71.2%	69.8%	94.5%	95.7%	80.5%	activity at 10 µM [3, 33]: 129%; activity at 10 µM [11, 31]: 66.9%; activity at 10 µM [23]: -73.5%; activity at 10 µM [24]: 102%; activity at 10 µM [25]: 68.9%; activity at 10 µM [26]: 65.4%; activity at 10 µM [27]: 90.3%; activity at 10 µM [28]: 83.3%; activity at 10 µM [29]: 106%; activity at 10 µM [30, 32]: 92.9%
Cc1nc(SCC(=O)N2CCN(c3cc4c(cc3F)c(=O)c(C(=O)O)cn4C3CC3)CC2)sc1C(=O)/C=C/c1ccc([N+](=O)[O-])cc1 [Compound 4h, (E)-1-Cyclopropyl-6-fluoro-7-(4-(2-((4-methyl-5-(3-(4-nitrophenyl)acryloyl)thiazol-2-yl)thio)acetyl)piperazin-1-yl)-4-oxo-1,4-dihydroquinoline-3-carboxylic Acid]	88.4%	23.8%	116%	16.3%	83.5%	62.3%	95.9%	85.9%	68.9%	116%	94.5%	116%	85.2%	87.9%	28.3%	87.6%	78.2%	88.3%	91.2%	80.9%	activity at 10 µM [3, 33]: 125%; activity at 10 µM [11, 31]: 83.9%; activity at 10 µM [23]: 33.8%; activity at 10 µM [24]: 88.8%; activity at 10 µM [25]: 87.7%; activity at 10 µM [26]: 78.3%; activity at 10 µM [27]: 99.7%; activity at 10 µM [28]: 70.5%; activity at 10 µM [29]: 99.4%; activity at 10 µM [30, 32]: 89.5%
Cc1nc(SCC(=O)N2CCN(c3cc4c(cc3F)c(=O)c(C(=O)O)cn4C3CC3)CC2)sc1C(=O)/C=C/c1ccc(N(C)C)cc1 [Compound 4i, (E)-1-Cyclopropyl-7-(4-(2-((5-(3-(4-(dimethylamino)phenyl)acryloyl)-4-methylthiazol-2-yl)thio)acetyl)piperazin-1-yl)-6-fluoro-4-oxo-1,4-dihydroquinoline-3-carboxylic Acid]	26.6%	64.5%	91.4%	4.7%	89.8%	83.2%	117%	96.7%	76.5%	91.8%	73.1%	81.7%	87.6%	100%	24.6%	59.2%	117%	105%	104%	89.5%	activity at 10 µM [3, 33]: 126%; activity at 10 µM [11, 31]: 12.9%; activity at 10 µM [23]: 2.6%; activity at 10 µM [24]: 97.1%; activity at 10 µM [25]: 85.5%; activity at 10 µM [26]: 81.1%; activity at 10 µM [27]: 103%; activity at 10 µM [28]: 75.9%; activity at 10 µM [29]: 108%; activity at 10 µM [30, 32]: 90.5%

Source: PMC12655637, “Design, Synthesis, and Mechanistic Study of Novel Ciprofloxacin/Thiazole Chalcone Hybrids as Potential Anticancer Agents” (Pharmaceuticals, 2025)
